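96-well plates; 48 h exposure; 5 concentrations. Endpoints by linear interpolation between flanking doses. Not reached: highest tested concentration assigned. At the GI50, growth is halved. Definition used: TGI = concentration required for complete inhibition of growth.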
What was measured:
Test in all cases: inhibition of tumour cell growth, NCI panel, 48 h
[1] = system: KM12 colon
[2] = system: UACC-62 melanoma
[3] = system: NCI-H226 lung
[4] = system: NCI-H460 lung
[5] = system: SK-MEL-5 melanoma
[6] = system: OVCAR-8 ovarian
[7] = system: OVCAR-5 ovarian
[8] = system: MOLT-4 leukemia
[9] = system: A498 renal
[10] = system: MDA-MB-231 breast
[11] = system: RXF 393 renal
[12] = system: HOP-92 NSCLC
[13] = system: SNB-19 CNS
[14] = system: SK-MEL-2 melanoma
[15] = system: MDA-MB-435
[16] = system: K-562 leukemia
[17] = system: HCT-15 colon
[18] = system: HCC-2998 colon
[19] = system: NCI/ADR-RES ovarian
[20] = system: UO-31 renal
[21] = system: HT29 colon
[22] = system: OVCAR-4 ovarian
[23] = system: SF-268 CNS
[24] = system: SW-620 colon
[25] = system: SF-295 CNS
[26] = system: CCRF-CEM leukemia
[27] = system: PC-3 prostate
[28] = system: DU-145 prostate
[29] = system: COLO 205 colon
[30] = system: LOX IMVI melanoma
[31] = system: M14 melanoma
[32] = system: MDA-N
[33] = system: SF-539 CNS
[34] = system: NCI-H23 lung
[35] = system: MCF7 breast
[36] = system: HCT-116 colon
[37] = system: U251 CNS
[38] = system: SR leukemia
[39] = system: RPMI-8226 leukemia
[40] = system: SN12C renal
[41] = system: 786-0 renal
[42] = system: SK-MEL-28 melanoma
[43] = system: SK-OV-3 ovarian
[44] = system: A549 NSCLC
[45] = system: ACHN renal
[46] = system: CAKI-1 renal
[47] = system: UACC-257 melanoma
[48] = system: TK-10 renal
[49] = system: BT-549 breast
[50] = system: T-47D breast
[51] = system: EKVX NSCLC
[52] = system: OVCAR-3 ovarian
[53] = system: SNB-75 CNS
[54] = system: IGROV1 ovarian
[55] = system: NCI-H522 lung
[56] = system: HOP-62 NSCLC
[57] = system: HS 578T breast
[58] = system: MALME-3M melanoma
[59] = system: HL-60(TB) leukemia

SMILES: N#CN=C(N)c1sc2nc3c(c(-c4ccc(Br)cc4)c2c1N)CCCC3
- TGI [1]: 59.7 µM
- TGI [2]: 51.3 µM
- TGI [3]: 42 µM
- TGI [4]: > 100 µM
- TGI [5]: 38.3 µM
- TGI [6]: 86.8 µM
- TGI [7]: > 100 µM
- TGI [8]: > 100 µM
- TGI [9]: 43.1 µM
- TGI [10]: 70.8 µM
- TGI [11]: 60 µM
- TGI [12]: 77.5 µM
- TGI [13]: > 100 µM
- TGI [14]: 32.8 µM
- TGI [15]: 13.6 µM
- TGI [16]: > 100 µM
- TGI [17]: 44.7 µM
- TGI [18]: 60.3 µM
- TGI [19]: 80.1 µM
- TGI [20]: 57.6 µM
- TGI [21]: 48.8 µM
- TGI [22]: 26.9 µM
- TGI [23]: > 100 µM
- TGI [24]: > 100 µM
- TGI [25]: 58.6 µM
- TGI [26]: > 100 µM
- TGI [27]: 52.7 µM
- TGI [28]: 71.9 µM
- TGI [29]: 44.8 µM
- TGI [30]: 41.2 µM
- TGI [31]: > 100 µM
- TGI [32]: 34.4 µM
- TGI [33]: > 100 µM
- TGI [34]: 66.9 µM
- TGI [35]: > 100 µM
- TGI [36]: 33.1 µM
- TGI [37]: > 100 µM
- TGI [38]: 50.3 µM
- TGI [39]: 56.5 µM
- TGI [40]: 58.1 µM
- TGI [41]: 50.2 µM
- TGI [42]: > 100 µM
- TGI [43]: > 100 µM
- TGI [44]: > 100 µM
- TGI [45]: 57 µM
- TGI [46]: 42.4 µM
- TGI [47]: > 100 µM
- TGI [48]: > 100 µM

SMILES: COc1cc(C(=O)/C=C/c2c(C)n([O-])c3ccc(C)cc3[n+]2=O)cc(OC)c1OC
- GI50 [1]: 13 µM
- TGI [1]: 27.6 µM
- GI50 [2]: 8.46 µM
- TGI [2]: 32.4 µM
- GI50 [3]: 30.6 µM
- TGI [3]: > 100 µM
- GI50 [4]: 14.7 µM
- TGI [4]: 36.9 µM
- GI50 [5]: 14.8 µM
- TGI [5]: 28 µM
- GI50 [6]: 3.46 µM
- TGI [6]: > 56.4 µM
- GI50 [7]: 12.8 µM
- TGI [7]: 29.6 µM
- GI50 [8]: 3.57 µM
- TGI [8]: > 29.8 µM
- GI50 [9]: 14.5 µM
- TGI [9]: 38.6 µM
- GI50 [10]: 10.6 µM
- TGI [10]: > 100 µM
- GI50 [11]: 1.89 µM
- TGI [11]: 3.91 µM
- GI50 [12]: 5.56 µM
- TGI [12]: > 27.1 µM
- GI50 [13]: 20.8 µM
- TGI [13]: 46 µM
- GI50 [14]: 15 µM
- TGI [14]: 31.2 µM
- GI50 [15]: 6.47 µM
- TGI [15]: > 63.4 µM
- GI50 [16]: 2.8 µM
- TGI [16]: > 24.7 µM
- GI50 [17]: 1.8 µM
- TGI [17]: 4.48 µM
- GI50 [49]: 8.06 µM
- TGI [49]: 33.2 µM
- GI50 [18]: 17 µM
- TGI [18]: 31 µM
- GI50 [19]: 8.47 µM
- TGI [19]: > 70.6 µM
- GI50 [20]: 4.63 µM
- TGI [20]: 10.1 µM
- GI50 [21]: 4.84 µM
- TGI [21]: 16.5 µM
- GI50 [50]: 2.23 µM
- TGI [50]: 5.81 µM
- GI50 [22]: 6.68 µM
- TGI [22]: 24 µM
- GI50 [23]: 12.3 µM
- TGI [23]: 29.5 µM
- GI50 [24]: 1.53 µM
- TGI [24]: 3.02 µM
- GI50 [25]: 22.8 µM
- TGI [25]: > 68 µM
- GI50 [26]: 2.83 µM
- TGI [26]: > 100 µM
- GI50 [27]: 12.9 µM
- TGI [27]: > 59.3 µM
- GI50 [28]: 7.88 µM
- TGI [28]: 21.1 µM
- GI50 [29]: 2 µM
- TGI [29]: 3.99 µM
- GI50 [51]: 19.4 µM
- TGI [51]: > 100 µM
- GI50 [30]: 2.11 µM
- TGI [30]: 5.91 µM
- GI50 [52]: 3.11 µM
- TGI [52]: 7.1 µM
- GI50 [31]: 4.27 µM
- TGI [31]: 10.3 µM
- GI50 [53]: 14.5 µM
- TGI [53]: 31.7 µM
- GI50 [54]: 3.8 µM
- TGI [54]: 13 µM
- GI50 [33]: 2.84 µM
- TGI [33]: 7.12 µM
- GI50 [34]: 10.4 µM
- TGI [34]: 26.4 µM
- GI50 [35]: 3.3 µM
- TGI [35]: 12.5 µM
- GI50 [36]: 1.54 µM
- TGI [36]: 2.95 µM
- GI50 [37]: 7.74 µM
- TGI [37]: 21 µM
- GI50 [38]: 2.15 µM
- TGI [38]: 7.42 µM
- GI50 [55]: 0.741 µM
- TGI [55]: 2.29 µM
- GI50 [39]: 2.87 µM
- TGI [39]: 17.6 µM
- TGI [40]: 35.7 µM
- GI50 [56]: 21.3 µM
- TGI [56]: 47.8 µM
- GI50 [57]: 14.7 µM
- TGI [57]: 60.7 µM
- GI50 [41]: 7.62 µM
- TGI [41]: 21.7 µM
- GI50 [42]: 2.41 µM
- TGI [42]: 6.54 µM
- GI50 [43]: 32.7 µM
- TGI [43]: > 100 µM
- GI50 [44]: 15.7 µM
- TGI [44]: 82.1 µM
- GI50 [45]: 2.23 µM
- TGI [45]: 5.6 µM
- GI50 [46]: 2.2 µM
- GI50 [58]: 2.24 µM
- TGI [58]: 5.2 µM
- GI50 [47]: 2.54 µM
- TGI [47]: 10.2 µM
- GI50 [48]: 3.77 µM
- TGI [48]: > 34.6 µM
- GI50 [59]: 2.32 µM
- TGI [59]: 6.15 µM

SMILES: CC(=O)[C@@H]1[C@@H](OC(=O)CCC(C)COC2OC(CO)C(O)C(O)C2O)C[C@H]2[C@@H]3CC=C4C[C@@H](OC5OC(CO)C(OC6OC(C)C(O)C(O)C6O)C(O)C5OC5OC(C)C(O)C(O)C5O)CC[C@]4(C)[C@H]3CC[C@]12C (some centres not stated)
- TGI [1]: > 100 µM
- TGI [2]: > 100 µM
- TGI [4]: > 100 µM
- TGI [5]: > 100 µM
- TGI [6]: > 100 µM
- TGI [7]: > 100 µM
- TGI [8]: > 100 µM
- TGI [9]: > 100 µM
- TGI [10]: > 100 µM
- TGI [11]: > 100 µM
- TGI [13]: > 100 µM
- TGI [14]: > 100 µM
- TGI [15]: > 100 µM
- TGI [16]: > 100 µM
- TGI [49]: > 100 µM
- TGI [18]: > 100 µM
- TGI [20]: > 100 µM
- TGI [50]: > 100 µM
- TGI [22]: > 100 µM
- TGI [23]: > 100 µM
- TGI [24]: > 100 µM
- TGI [25]: > 100 µM
- TGI [26]: > 100 µM
- TGI [27]: > 100 µM
- TGI [28]: > 100 µM
- TGI [29]: > 100 µM
- TGI [51]: > 100 µM
- TGI [30]: > 100 µM
- TGI [52]: > 100 µM
- TGI [31]: > 100 µM
- TGI [32]: > 100 µM
- TGI [53]: > 100 µM
- TGI [34]: > 100 µM
- TGI [35]: > 100 µM
- TGI [36]: > 100 µM
- TGI [37]: > 100 µM
- TGI [38]: > 100 µM
- TGI [55]: 97 µM
- TGI [39]: > 100 µM
- TGI [40]: > 100 µM
- TGI [56]: > 100 µM
- TGI [41]: > 100 µM
- TGI [42]: > 100 µM
- TGI [43]: > 100 µM
- TGI [44]: > 100 µM
- TGI [45]: > 100 µM
- TGI [46]: > 100 µM
- TGI [58]: > 100 µM
- TGI [47]: > 100 µM
- TGI [48]: > 100 µM
